In experiment [1] the test system is Pyricularia grisea. Nature of the experiment: Inhibition of Magnaporthe grisea Guy 11 isocitrate lyase.
Experiment [2] is described as follows: Inhibition of sortase A (unknown origin).
Experiment [3] relates to K562. Nature of the experiment: Cytotoxicity against human K562 cells. The class given is functional. The conditions noted are these: read-out: LC50 (the source's name).
Experiment [4] relates to A549. Put plainly: Cytotoxicity against human A549 cells. The class given is functional. Particulars: read-out: LC50 (the source's name).
Experiment [5] deals with Staphylococcus aureus. Put plainly: Antimicrobial activity against Staphylococcus aureus ATCC 6538p after 24 hrs by two-fold broth dilution method. The class given is functional.
In experiment [6] the test system is Bacillus spizizenii. Put plainly: Antimicrobial activity against Bacillus subtilis ATCC 6633 after 24 hrs by two-fold broth dilution method. The class given is functional. The conditions noted are these: ATCC 6633, 24 h.
In experiment [7] the test system is Kocuria rhizophila. Nature of the experiment: Antimicrobial activity against Kocuria rhizophila NBRC 12708 after 24 hrs by two-fold broth dilution method. It counts as functional. Particulars: NBRC 12708, 24 h.
Experiment [8] relates to Salmonella enterica. Nature of the experiment: Antimicrobial activity against Salmonella enterica ATCC 14028 after 24 hrs by two-fold broth dilution method. The class given is functional. Particulars: ATCC 14028, 24 h. (Broth dilution looks for growth in wells or tubes with falling amounts of substance.)
Experiment [9] deals with Proteus hauseri. Nature of the experiment: Antimicrobial activity against Proteus hauseri NBRC 3851 after 24 hrs by two-fold broth dilution method. The conditions noted are these: NBRC 3851, 24 h. The class given is functional.
Experiment [10] relates to Escherichia coli. Put plainly: Antimicrobial activity against Escherichia coli ATCC 35270 after 24 hrs by two-fold broth dilution method. The class given is functional. The conditions noted are these: ATCC 35270, 24 h.

The values that follow come from ChEMBL document CHEMBL3297669, “Suvanine sesterterpenes and deacyl irciniasulfonic acids from a tropical Coscinoderma sp. sponge” (J Nat Prod, 2014).

Molecules are shown by their SMILES. Values after ≈ are worked out from the molar mass of the structure shown.

For orientation: IC50 means the midpoint of a concentration-inhibition curve. On to `O=C(O)CC[N+](=O)[O-]`, for which, in experiment [1], the MIC worked out at 2.5 µg/mL (≈ 21 µM). The molecule also had an IC50 in [2] of over 100 µM.

In the case of `CC(=O)CCCCC/C(C)=C\C(=O)NCCS(=O)(=O)O`, the CC50 in experiment [3] and in experiment [4] was over 100 µg/mL throughout. The MIC in [5], in [6], in experiment [7], in experiment [8], in experiment [9] and in experiment [10] was over 100 µg/mL each time. Besides, the MIC in experiment [1] is over 100 µg/mL. In experiment [2], this molecule had an IC50 of over 100 µM.

In turn, `CC1(C)CCC[C@]2(C)[C@H]3CC/C(=C\OS(=O)(=O)[O-])[C@H](CCc4ccoc4)[C@@]3(C)CC[C@@H]12.C[N+](C)=C(N)N` yielded an MIC in experiment [1] of 51 µg/mL.

`C/C(=C/C(=O)NCCS(=O)(=O)[O-])CCCCC[C@H](C)O.[Na+]`: the CC50 in experiment [3] and in [4] was over 100 µg/mL throughout. The MIC in [5], in experiment [8] and in experiment [1] was over 100 µg/mL each time. The IC50 in experiment [2] is over 100 µM.

As for `CC(C)[C@@H](C(=O)O)N1CC(CC[C@H]2/C(=C/OS(=O)(=O)[O-])CC[C@H]3[C@]2(C)CC[C@H]2C(C)(C)CCC[C@]32C)=CC1=O.[Na+]`, the CC50 worked out at 3.9 µg/mL in experiment [3] and 1.9 µg/mL in [4]. Besides, the MIC in [5] was over 100 µg/mL; in experiment [6], over 100 µg/mL; in [7] it was over 100 µg/mL; in [8], 100 µg/mL; in experiment [9] it was over 100 µg/mL; in [10] it was over 100 µg/mL. Moreover, the MIC in experiment [1] was 64 µg/mL. For the same molecule, in experiment [2], the IC50 was over 100 µM.

Turning to `CC1(C)CCC[C@]2(C)[C@H]3CC/C(=C\OS(=O)(=O)[O-])[C@H](CCc4ccoc4)[C@@]3(C)CC[C@@H]12.C[N+](C)=C(N)N` [SUVANINE], the figures for the CC50 in [3] and in experiment [4] were 0.9 µg/mL and 1.7 µg/mL, respectively. For the same molecule, the MIC in [5] was over 100 µg/mL; in experiment [6] it was 12.5 µg/mL; in experiment [7], over 100 µg/mL; in experiment [8], 25 µg/mL; in experiment [9] it was 100 µg/mL; in [10] it was over 100 µg/mL. The same molecule registered an IC50 in [2] of over 100 µM.

For `CC1(C)CCC[C@]2(C)[C@H]3CC/C(=C\OS(=O)(=O)[O-])[C@H](CCC4=CCN(CCS(=O)(=O)O)C4=O)[C@@]3(C)CC[C@@H]12.[Na+]`, the figures for the CC50 in experiment [3] and in experiment [4] were 4.6 µg/mL and 2 µg/mL, respectively. The MIC in [5], in experiment [6], in experiment [7], in experiment [8], in experiment [9] and in experiment [10] was over 100 µg/mL in each case. In addition, the MIC in experiment [1] worked out at 90 µg/mL. This molecule also displayed an IC50 in experiment [2] of over 100 µM.

For the molecule `C[S+]([O-])CCCN1CC=C(CC[C@H]2/C(=C/OS(=O)(=O)[O-])CC[C@H]3[C@]2(C)CC[C@H]2C(C)(C)CCC[C@]32C)C1=O.[Na+]` (stereo not given in full), the CC50 in experiment [3] came out at 3.9 µg/mL; in experiment [4] it was 5.5 µg/mL. The figures for the MIC in experiment [5], in experiment [8] and in experiment [1] were over 100 µg/mL, 50 µg/mL and 24 µg/mL, respectively. For the same molecule, the IC50 in experiment [2] was over 100 µM.

As to `C[C@@H]1O[C@@H](O[C@H]2C[C@@H](O)[C@]3(CO)[C@H]4[C@H](O)C[C@]5(C)[C@@H](C6=CC(=O)OC6)CC[C@]5(O)[C@@H]4CC[C@]3(O)C2)[C@H](O)[C@H](O)[C@H]1O` [OUABAIN], the IC50 in experiment [2] is over 100 µM.

As to `C[C@H](C(=O)O)N1CC=C(CC[C@H]2/C(=C/OS(=O)(=O)[O-])CC[C@H]3[C@]2(C)CC[C@H]2C(C)(C)CCC[C@]32C)C1=O.[Na+]`, the CC50 in [3] turned out to be 1.9 µg/mL; in experiment [4] it was 1.1 µg/mL. In addition, the MIC in experiment [5] was over 100 µg/mL; in experiment [6], over 100 µg/mL; in experiment [7], over 100 µg/mL; in [8] it was 50 µg/mL; in experiment [9], over 100 µg/mL; in experiment [10], over 100 µg/mL. This molecule displayed an MIC in experiment [1] of 48 µg/mL. Moreover, the IC50 in experiment [2] is over 100 µM.

As for `CC1(C)CCC[C@]2(C)[C@H]3CC/C(=C\OS(=O)(=O)[O-])[C@H](CCc4ccoc4)[C@@]3(C)CC[C@@H]12.CN(C)c1n(C)c(=O)c2c([n+]1C)N(C)CN2C` [listing 1 of 2 here], the values for the CC50 in experiment [3] and in [4] were 2.2 µg/mL and 1.9 µg/mL, respectively. Further, the MIC is 6.25 µg/mL in [5]; 0.78 µg/mL in experiment [6]; 6.25 µg/mL in experiment [7]; 0.78 µg/mL in experiment [8]; 6.25 µg/mL in experiment [9]; over 100 µg/mL in [10]. In experiment [2], the IC50 is over 100 µM.

Turning to `CC1(C)S[C@@H]2[C@H](NC(=O)[C@H](N)c3ccccc3)C(=O)N2[C@H]1C(=O)O` [AMPICILLIN], the MIC in experiment [5] worked out at 0.39 µg/mL (≈ 1.12 µM); in experiment [6], 0.39 µg/mL (≈ 1.12 µM); in experiment [7], 0.39 µg/mL (≈ 1.12 µM); in [8], 0.39 µg/mL (≈ 1.12 µM); in experiment [9], 0.78 µg/mL (≈ 2.23 µM); in experiment [10] it was 3.12 µg/mL (≈ 8.93 µM). The molecule further came in with an IC50 in experiment [2] of over 100 µM.

In the case of `COc1cccc2c1C(=O)c1c(O)c3c(c(O)c1C2=O)C[C@@](O)(C(=O)CO)C[C@@H]3O[C@H]1C[C@H](N)[C@H](O)[C@H](C)O1` [DOXORUBICIN], the CC50 in experiment [3] turned out to be 0.7 µg/mL (≈ 1.29 µM); in experiment [4], 0.8 µg/mL (≈ 1.47 µM). Besides, the IC50 in experiment [2] is over 100 µM.

As for `CC1(C)CCC[C@]2(C)[C@H]3CC/C(=C\OS(=O)(=O)[O-])[C@H](CCC4=CC(=O)N(CCS(=O)(=O)O)C4)[C@@]3(C)CC[C@@H]12.[Na+]`, the CC50 in experiment [3] was 3.6 µg/mL; in [4], 3.5 µg/mL. Moreover, the MIC in experiment [5], in experiment [6], in experiment [7], in experiment [8], in [9] and in [10] was over 100 µg/mL each time. The molecule also showed an MIC in experiment [1] of 50 µg/mL. The molecule further returned an IC50 in [2] of over 100 µM.

With `CC1(C)CCC[C@]2(C)[C@H]3CC/C(=C\OS(=O)(=O)[O-])[C@H](CCC4=CCN(CC(=O)O)C4=O)[C@@]3(C)CC[C@@H]12.[Na+]`, the CC50 is 1.3 µg/mL in [3] and 1.4 µg/mL in [4]. Moreover, the MIC in [5], in experiment [6], in [7], in experiment [8], in experiment [9] and in experiment [10] was over 100 µg/mL each time. The MIC in experiment [1] was 62 µg/mL. Besides, the IC50 in experiment [2] is over 100 µM.

Regarding `CC1(C)CCC[C@]2(C)[C@H]3CC/C(=C\OS(=O)(=O)[O-])[C@H](CCc4ccoc4)[C@@]3(C)CC[C@@H]12.CN(C)c1n(C)c(=O)c2c([n+]1C)N(C)CN2C` [listing 2 of 2 here], the MIC in experiment [1] was 28 µg/mL.
